Calls of active or inactive are those of the source. The calls are words filed in the database; no cut-off is given here.

What is called IC50 is the midpoint of a concentration-inhibition curve. A high value points to weaker potency. What is called inhibition is the drop in the measured response relative to a control, in per cent.

The target in test [1] is Acetylcholinesterase (Electrophorus electricus, UniProt O42275). As to the kind of experiment: Inhibition of electric eel AChE preincubated for 15 mins by Ellman's method. On the technique in general: DTNB colorimetry detects thiols as they appear.
Acetylcholinesterase (Electrophorus electricus, UniProt O42275), sequence (O42275 whole entry): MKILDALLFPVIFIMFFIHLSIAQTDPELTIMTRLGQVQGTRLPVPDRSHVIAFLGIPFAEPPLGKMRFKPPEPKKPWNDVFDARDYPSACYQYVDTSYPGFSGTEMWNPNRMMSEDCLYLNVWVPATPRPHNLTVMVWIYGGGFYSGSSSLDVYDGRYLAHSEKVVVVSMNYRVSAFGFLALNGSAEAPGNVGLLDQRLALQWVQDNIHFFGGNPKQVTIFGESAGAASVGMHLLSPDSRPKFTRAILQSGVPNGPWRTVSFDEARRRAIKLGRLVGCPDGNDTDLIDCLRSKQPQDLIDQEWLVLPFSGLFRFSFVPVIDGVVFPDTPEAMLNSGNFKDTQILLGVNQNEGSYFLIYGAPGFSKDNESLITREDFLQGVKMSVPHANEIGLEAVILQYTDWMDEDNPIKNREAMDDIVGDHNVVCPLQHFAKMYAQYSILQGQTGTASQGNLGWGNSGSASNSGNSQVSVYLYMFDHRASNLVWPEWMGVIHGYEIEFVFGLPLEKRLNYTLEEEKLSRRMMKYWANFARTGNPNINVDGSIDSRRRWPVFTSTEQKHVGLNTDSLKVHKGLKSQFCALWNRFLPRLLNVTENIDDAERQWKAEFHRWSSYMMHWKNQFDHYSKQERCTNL
The next test concerns the target Butyrylcholinesterase (Equus caballus, UniProt Q9N1N9).
In test [2] the target is Acetylcholinesterase (Homo sapiens, UniProt P22303). As to the kind of experiment: Inhibition of human erythrocyte AChE preincubated for 15 mins by Ellman's method.
Acetylcholinesterase (Homo sapiens, UniProt P22303), sequence (P22303 whole entry): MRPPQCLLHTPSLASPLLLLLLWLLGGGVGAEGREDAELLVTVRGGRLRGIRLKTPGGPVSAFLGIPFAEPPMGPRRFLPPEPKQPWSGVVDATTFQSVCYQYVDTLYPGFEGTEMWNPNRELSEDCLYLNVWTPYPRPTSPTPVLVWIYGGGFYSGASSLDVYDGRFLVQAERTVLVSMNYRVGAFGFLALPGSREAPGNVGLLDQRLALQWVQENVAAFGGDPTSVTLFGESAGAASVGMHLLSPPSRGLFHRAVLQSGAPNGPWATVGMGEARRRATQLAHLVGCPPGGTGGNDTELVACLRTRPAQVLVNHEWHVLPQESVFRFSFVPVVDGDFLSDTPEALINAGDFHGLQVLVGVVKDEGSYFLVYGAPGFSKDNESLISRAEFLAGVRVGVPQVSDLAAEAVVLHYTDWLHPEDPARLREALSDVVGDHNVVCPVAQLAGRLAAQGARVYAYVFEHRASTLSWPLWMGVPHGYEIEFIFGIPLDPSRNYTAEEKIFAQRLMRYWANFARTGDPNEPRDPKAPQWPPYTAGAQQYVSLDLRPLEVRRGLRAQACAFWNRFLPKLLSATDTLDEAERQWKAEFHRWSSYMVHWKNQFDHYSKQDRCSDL
The target of test [3] is Amyloid-beta precursor protein (Homo sapiens) (UniProt P05067). As to the kind of experiment: Inhibition of amyloid beta (1-42) self-mediated aggregation (unknown origin) at 20 uM after 48 hrs by thioflavin T fluorescence method.
Amyloid-beta precursor protein (Homo sapiens), sequence (P05067 whole entry): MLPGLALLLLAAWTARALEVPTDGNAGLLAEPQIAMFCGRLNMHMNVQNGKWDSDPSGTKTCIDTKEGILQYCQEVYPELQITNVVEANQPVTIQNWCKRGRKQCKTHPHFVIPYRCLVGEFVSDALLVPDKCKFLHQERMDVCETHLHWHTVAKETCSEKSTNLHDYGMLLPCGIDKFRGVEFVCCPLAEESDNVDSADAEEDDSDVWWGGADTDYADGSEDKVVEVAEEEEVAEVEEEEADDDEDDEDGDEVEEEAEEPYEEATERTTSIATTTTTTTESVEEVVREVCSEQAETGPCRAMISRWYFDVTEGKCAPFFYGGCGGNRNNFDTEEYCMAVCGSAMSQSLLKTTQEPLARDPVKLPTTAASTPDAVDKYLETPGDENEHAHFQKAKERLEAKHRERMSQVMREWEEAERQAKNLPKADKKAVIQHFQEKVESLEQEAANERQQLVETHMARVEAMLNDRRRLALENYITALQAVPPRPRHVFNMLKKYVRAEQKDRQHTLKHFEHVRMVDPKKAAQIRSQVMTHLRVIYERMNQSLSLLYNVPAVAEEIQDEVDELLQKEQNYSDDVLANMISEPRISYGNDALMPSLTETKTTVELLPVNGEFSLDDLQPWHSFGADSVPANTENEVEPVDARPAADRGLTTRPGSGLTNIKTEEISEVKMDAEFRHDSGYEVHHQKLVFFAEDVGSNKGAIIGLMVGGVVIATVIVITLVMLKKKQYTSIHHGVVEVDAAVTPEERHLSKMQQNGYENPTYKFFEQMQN
For test [4] the target is unchanged. As to the kind of experiment: Inhibition of amyloid beta (1-42) (unknown origin) fibril formation at 20 uM after 24 hrs by transmission electron microscopy.
For test [5] the target is unchanged. Nature of the test: Disaggregation of amyloid beta (1-42) fibrils (unknown origin) at 20 uM after 24 hrs by thioflavin T fluorescence method.
Test [6] has the same target. Nature of the test: Disaggregation of amyloid beta (1-42) fibrils (unknown origin) at 20 uM after 24 hrs by transmission electron microscopy.

Butyrylcholinesterase, sequence (Q9N1N9 whole entry): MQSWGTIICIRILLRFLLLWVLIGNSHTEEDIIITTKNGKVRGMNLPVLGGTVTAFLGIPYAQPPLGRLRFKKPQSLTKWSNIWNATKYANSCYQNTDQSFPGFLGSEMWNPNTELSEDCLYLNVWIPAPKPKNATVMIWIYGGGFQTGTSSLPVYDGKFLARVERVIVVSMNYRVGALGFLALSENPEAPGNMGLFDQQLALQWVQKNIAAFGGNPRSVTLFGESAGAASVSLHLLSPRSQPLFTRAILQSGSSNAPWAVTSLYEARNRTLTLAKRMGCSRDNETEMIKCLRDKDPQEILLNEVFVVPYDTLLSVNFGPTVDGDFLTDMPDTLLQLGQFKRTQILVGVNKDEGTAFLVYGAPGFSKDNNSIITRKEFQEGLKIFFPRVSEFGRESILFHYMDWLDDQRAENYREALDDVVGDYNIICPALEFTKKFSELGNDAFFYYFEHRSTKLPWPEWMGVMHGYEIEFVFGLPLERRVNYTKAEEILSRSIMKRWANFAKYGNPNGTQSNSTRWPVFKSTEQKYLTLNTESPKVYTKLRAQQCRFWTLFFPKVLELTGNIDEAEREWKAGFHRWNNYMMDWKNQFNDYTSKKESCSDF
Description for Butyrylcholinesterase: Inhibition of equine BChE preincubated for 15 mins by Ellman's method

As to `COc1cc2c(cc1OCCCCCN1CCCCC1)C(=O)/C(=C/c1ccc(N(C)C)cc1)C2`, the IC50 at Acetylcholinesterase [1] worked out at 1030 nM; on Butyrylcholinesterase it was 2440 nM.

Take `COc1cc2c(cc1OCCN1CCCCC1)C(=O)/C(=C/c1ccc(N(C)C)cc1)C2`: the results for the IC50 against Acetylcholinesterase [1], at Acetylcholinesterase [2] and against Butyrylcholinesterase were 16.5 nM, 285 nM and 1490 nM, respectively.

Regarding `CNc1ccc(/C=C2\Cc3cc(OC)c(OCCN4CCCCC4)cc3C2=O)cc1`, the values for the IC50 against Acetylcholinesterase [1], on Acetylcholinesterase [2] and on Butyrylcholinesterase were 16.8 nM, 301 nM and 1640 nM, respectively.

As for `CCN(C)c1ccc(/C=C2\Cc3cc(OC)c(OCCN4CCCCC4)cc3C2=O)cc1`, the IC50 at Acetylcholinesterase [1] came out at 25.5 nM; at Acetylcholinesterase [2] it was 426 nM; against Butyrylcholinesterase, 1270 nM. In test [3], this compound returned an inhibition of 85.2%.

`CCN(CC)c1ccc(/C=C2\Cc3cc(OC)c(OCCCCCN4CCCCC4)cc3C2=O)cc1`: the IC50 turned out to be 5730 nM at Acetylcholinesterase [1] and 2840 nM at Butyrylcholinesterase.

As to `COc1cc2c(cc1OCCNC1CCCCC1)C(=O)/C(=C/c1ccc(N(C)C)cc1)C2`, the values for the IC50 against Acetylcholinesterase [1] and against Butyrylcholinesterase were 102 nM and 363 nM, respectively. Further, the inhibition in test [3] amounted to 84.3%.

On to `CCCN(CCC)c1ccc(/C=C2\Cc3cc(OC)c(OCCN4CCCCC4)cc3C2=O)cc1`, for which the figures for the IC50 against Acetylcholinesterase [1], at Acetylcholinesterase [2] and against Butyrylcholinesterase were 14.6 nM, 954 nM and 1770 nM, respectively.

Regarding `COc1ccc(/C=C2\Cc3cc(OC)c(OCCN4CCCCC4)cc3C2=O)cc1`, the IC50 against Acetylcholinesterase [1] stood at 14.8 nM; against Butyrylcholinesterase it was 3210 nM. The inhibition entry in test [3] is “inactive”.

In the case of `CCCN(C)c1ccc(/C=C2\Cc3cc(OC)c(OCCN4CCCCC4)cc3C2=O)cc1`, the IC50 stood at 18.6 nM against Acetylcholinesterase [1], 390 nM against Acetylcholinesterase [2] and 1420 nM against Butyrylcholinesterase. Further, the inhibition in test [3] was found to be 83.8%. The inhibition result in test [4] is “Active”. The compound further gave an Activity in test [5] of 73.8%. For the same compound, the outcome in test [6] was Active.

Take `COc1cc2c(cc1OCCCN1CCCCC1)C(=O)/C(=C/c1ccc(N(C)C)cc1)C2`: the IC50 was found to be 330 nM at Acetylcholinesterase [1] and 1460 nM on Butyrylcholinesterase.

Consider `COc1cc2c(cc1OCCCCNC1CCCCC1)C(=O)/C(=C/c1ccc(N(C)C)cc1)C2`, for which the IC50 at Acetylcholinesterase [1] stood at 9180 nM; against Butyrylcholinesterase, 1130 nM.

For the compound `CCN(CC)c1ccc(/C=C2\Cc3cc(OC)c(OCCN4CCCCC4)cc3C2=O)cc1`, the values for the IC50 against Acetylcholinesterase [1], on Acetylcholinesterase [2] and against Butyrylcholinesterase were 14.8 nM, 536 nM and 1380 nM, respectively. Moreover, in test [3], the inhibition amounted to 85.5%. Besides, in test [4], the inhibition result was “Active”. The Activity in test [5] came out at 65%. For the same compound, the outcome in test [6] was Active.

Take `CCN(CC)c1ccc(/C=C2\Cc3cc(OC)c(OCCCN4CCCCC4)cc3C2=O)cc1`: the results for the IC50 against Acetylcholinesterase [1] and on Butyrylcholinesterase were 371 nM and 2820 nM, respectively.

As for `COc1cc2c(cc1OCCCNC1CCCCC1)C(=O)/C(=C/c1ccc(N(C)C)cc1)C2`, the results for the IC50 against Acetylcholinesterase [1] and on Butyrylcholinesterase were 1540 nM and 1330 nM, respectively.

Values taken from ChEMBL document CHEMBL3351729, “Discovery of indanone derivatives as multi-target-directed ligands against Alzheimer's disease” (Eur J Med Chem, 2014).
